Reference: PubChem BioAssay (NCI)
“And” between values parts separate entries of the source, which are not always exact repeats. Identical values can stand only once.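 Growth conditions: 96-well plates. Treatment: test compound, 48 hours, 5 concentrations. Analysis: linear interpolation between bracketing concentrations; unreached endpoints set to highest concentration. GI50 is the concentration that inhibits growth by half. Definition used: TGI = concentration required for complete inhibition of growth.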

Key:
Assay in all cases: NCI-60 cell line screen, 48 h
SF-539 CNS = tested on: SF-539 CNS
SF-268 CNS = tested on: SF-268 CNS
SW-620 colon = tested on: SW-620 colon
HCC-2998 colon = tested on: HCC-2998 colon
T-47D breast = tested on: T-47D breast
NCI-H460 lung = tested on: NCI-H460 lung
SN12C renal = tested on: SN12C renal
RXF 393 renal = tested on: RXF 393 renal
HCT-116 colon = tested on: HCT-116 colon
SK-MEL-2 melanoma = tested on: SK-MEL-2 melanoma

| Compound | GI50 (SF-539 CNS) | TGI (SF-539 CNS) | GI50 (SF-268 CNS) | TGI (SF-268 CNS) | GI50 (SW-620 colon) | TGI (SW-620 colon) | GI50 (HCC-2998 colon) | TGI (HCC-2998 colon) | GI50 (T-47D breast) | TGI (T-47D breast) | GI50 (NCI-H460 lung) | TGI (NCI-H460 lung) | GI50 (SN12C renal) | TGI (SN12C renal) | GI50 (RXF 393 renal) | TGI (RXF 393 renal) | GI50 (HCT-116 colon) | TGI (HCT-116 colon) | GI50 (SK-MEL-2 melanoma) | TGI (SK-MEL-2 melanoma) |
| --- | --- | --- | --- | --- | --- | --- | --- | --- | --- | --- | --- | --- | --- | --- | --- | --- | --- | --- | --- | --- |
| CCCS(=O)(=O)Nc1ccc(F)c(C(=O)c2c[nH]c3ncc(-c4ccc(Cl)cc4)cc23)c1F | 3.91 µM and 4.51 µM | 17.1 µM and > 10 µM | 6.09 µM and 6.67 µM | 23.6 µM and > 10 µM | 10 µM and > 8.98 µM | 27.3 µM and > 10 µM | 5.59 µM and 10 µM | 17.9 µM and > 10 µM | 5.34 µM and 5.13 µM | 24.8 µM and > 10 µM | 3.01 µM and 5 µM | 14 µM and > 10 µM | 4.52 µM and > 8.4 µM | 21.9 µM and > 10 µM | 1.89 µM and 3.53 µM | 6.58 µM and > 10 µM | 4.46 µM and 5.81 µM | 16.9 µM and > 10 µM | 4.11 µM and 3.65 µM | 14.7 µM and > 10 µM |
| COc1ccc(N2CCN(C(=O)c3ccccc3Nc3ccnc(C(F)(F)F)c3)CC2)cc1 | > 100 µM | > 100 µM | > 100 µM | > 100 µM | > 100 µM | > 100 µM | > 100 µM | > 100 µM | 9.23 µM | 96.7 µM | 50.7 µM | > 100 µM | 64.4 µM | > 100 µM | 99.9 µM | > 100 µM | 37.7 µM | > 100 µM | > 100 µM | > 100 µM |
| COc1ccc2c(c1)CCC1C2CC[C@@]2(C)C1CC[C@@]2(O)CNC(=O)/C=C/c1ccc(O)c(OC)c1 (stereo partly specified) |  | 19.3 µM | 20 µM | > 100 µM | 58.4 µM | > 100 µM | 17.7 µM | 33.7 µM | 9.12 µM | > 100 µM | 4.02 µM | > 100 µM | 24.3 µM | > 100 µM | 21.1 µM | 78.6 µM | 19 µM | > 100 µM | 38.8 µM | > 100 µM |
| CN(C)c1ccc(/C=C2\C[C@H]3[C@@H]4CC=C5C[C@@H](N6CCCC6)CC[C@]5(C)[C@H]4CC[C@]3(C)[C@H]2O)cc1 |  | 12.8 µM | 2.93 µM | 2.4 µM and 9.84 µM |  | 3.69 µM |  | 1.86 µM | 2.33 µM | 2.33 µM and 6.03 µM | 2.37 µM | 5.08 µM and 5.52 µM | 2.42 µM | 3.3 µM and 5.6 µM | 3.47 µM | 2.65 µM and 12.3 µM | 2.1 µM | 1.7 µM and 4.67 µM | 2 µM | 2.35 µM and 3.89 µM |
| S=c1nc[nH]c2c1ncn2Cc1ccco1 |  | > 100 µM |  | > 100 µM |  | > 100 µM |  | > 100 µM |  | > 100 µM |  | > 100 µM |  | > 100 µM |  | > 100 µM |  | > 100 µM |  | > 100 µM |
| CN1/C(=C\C(I)C(I)C2=[N+](C)c3ccccc3C2(C)C)C(C)(C)c2ccccc21 (stereo unspecified) | 0.783 µM | 23.6 µM | 0.479 µM | 19.1 µM | 0.333 µM | 17 µM | 0.371 µM | 16.9 µM | 0.0852 µM | 9.39 µM | 0.205 µM | 10.7 µM | 0.277 µM | 9.86 µM | 0.497 µM | 3.6 µM | 0.0852 µM | 11.6 µM | 0.39 µM | 2.75 µM |
| C#CCN1C(=O)/C(=c2\sc3n(c2=O)C2C(NN=3)N(CC)C(=O)N2CC)c2ccccc21 (stereo unspecified) | 0.295 µM | 1.4 µM | 5.5 µM | > 100 µM | 0.422 µM | > 100 µM | 1.19 µM | > 100 µM | 0.639 µM | > 100 µM | 0.439 µM | > 100 µM | 0.797 µM | > 100 µM | 0.354 µM | 2.28 µM | 0.376 µM | > 100 µM | 3.21 µM | > 100 µM |
| COc1ccc(OC)c(-c2nc3sccn3c2/C=C2/C(=O)Nc3ccc(Cl)cc32)c1 | 24.3 µM | 60.9 µM | 30.6 µM | > 100 µM | 31.2 µM | > 100 µM | 18.4 µM | 33.9 µM | 26.6 µM | 70.1 µM | 26 µM | 65 µM | 35.2 µM | > 100 µM | 27.6 µM | > 100 µM | 29.7 µM | > 100 µM | 17.5 µM | 35.2 µM |
| COc1ccc(-c2nn(-c3cccc(Cl)c3)cc2C=C(C#N)C#N)cc1 | 2.3 µM | 5.44 µM | 2.5 µM | 9.14 µM | 1.9 µM | 5.45 µM | 3.67 µM | 14 µM | 3.34 µM | 21.8 µM | 2.05 µM | 5.37 µM | 3.35 µM | > 100 µM | 1.85 µM | 4.99 µM | 1.73 µM | 4.44 µM | 2.37 µM | 4.83 µM |
| C(=N\Nc1nnc2c(n1)[nH]c1ccccc12)/c1cccnc1 |  | > 100 µM |  | > 100 µM |  | > 100 µM |  | > 100 µM |  | > 100 µM |  | > 100 µM |  | > 100 µM |  | > 100 µM |  | > 100 µM |  | > 100 µM |
| O=C(c1ccccc1Nc1ccnc(C(F)(F)F)c1)N1CCN(c2cccc(Cl)c2)CC1 | 17.8 µM | 41.1 µM | 29.3 µM | > 100 µM | 25 µM | > 100 µM | 24.6 µM | > 72.9 µM | 10.7 µM | 74.4 µM | 17.6 µM | 44.6 µM | 16.4 µM | 45 µM | 16.3 µM | 64.8 µM | 12.2 µM | 29 µM | 21.1 µM | 50.3 µM |
| Nc1ccc(-c2nc3ccc4[nH]ncc4c3c3c2CCCC3)cc1F | 1.38 µM | 5.85 µM | 1.76 µM | 19.2 µM | 0.907 µM | 7.52 µM | 3.04 µM | 12.3 µM | 1.2 µM | 7.77 µM | 0.959 µM | 8.51 µM | 1.96 µM | 13.2 µM | 0.36 µM | 2 µM | 0.6 µM | 5.99 µM | 1.27 µM | 6.19 µM |
| CC(=O)Oc1ccc(OC(C)=O)c2ccccc12 | 13.2 µM | 26.4 µM | 10.5 µM | 22.3 µM | 13.8 µM | 33.2 µM | 17.5 µM | 31.7 µM | 1.21 µM | 3.16 µM | 29.1 µM | > 100 µM | 14 µM | 27.5 µM | 7.57 µM | 20.2 µM | 3.59 µM | 12.9 µM | 12.8 µM | 27 µM |
| COc1cc(-c2cc(-c3ccc(N(C)C)cc3)nc(N3CCOCC3)c2C#N)cc(OC)c1OC | 2.22 µM | > 54.8 µM | 3.73 µM | > 100 µM | 2.02 µM | > 100 µM | 2.53 µM | 21.3 µM | 0.529 µM | > 22.5 µM | 0.289 µM | > 61.6 µM | 0.46 µM | > 100 µM | 0.134 µM | 3.85 µM | 0.388 µM | > 100 µM | 1.14 µM | 17.9 µM |
| Cn1c2ccccc2c(=Nc2ccccc2)c2c3ccccc3[nH]c21 | 1.17 µM | 2.46 µM | 0.436 µM | 2.37 µM | 1.09 µM | 2.9 µM | 3.23 µM | 46.4 µM | 3.91 µM | > 100 µM | 0.41 µM | 1.49 µM | 1.24 µM | 3.11 µM | 1.84 µM | 4.05 µM | 1.26 µM | 2.52 µM | 3.78 µM | > 100 µM |
| COc1ccccc1/C=C\c1cnnc2ccccc12 |  | > 10 µM |  | > 10 µM |  | > 10 µM |  | > 10 µM |  | > 10 µM |  | > 10 µM |  | > 10 µM |  | > 10 µM |  | > 10 µM |  | > 10 µM |
| Cn1nc(C(F)(F)F)c(-c2ccc(Cl)c(C(F)(F)F)c2)c1-c1ccc(OCc2ccc(Cl)cc2)cc1O | 1.65 µM | 5.95 µM | 1.77 µM | 7.52 µM | 1.84 µM | 7.28 µM | 1.88 µM | 6.73 µM | 1.27 µM | 5.32 µM | 1.71 µM | 5.64 µM | 1.65 µM | 5.92 µM | 1.41 µM | 4.32 µM | 1.5 µM | 5.46 µM | 1.41 µM | 4.52 µM |
| Cc1ccc2nc3c(C)c(Cl)c(=O)cc-3sc2c1 |  | 62.3 µM |  | > 100 µM |  | > 100 µM |  | > 100 µM |  | > 100 µM |  | 97.4 µM |  | > 100 µM |  | 73.7 µM |  | 58 µM |  | 37.5 µM |
| Nc1[nH]c(=O)ncc1F |  | > 100 µM |  | > 100 µM |  | > 100 µM |  | > 100 µM |  | > 100 µM |  | > 100 µM |  | > 100 µM |  | > 100 µM |  | > 100 µM |  | > 100 µM |
| CC(CN=C(CC(=O)c1ccc(Br)cc1)c1ccccc1)N=C(CC(=O)c1ccc(Br)cc1)c1ccccc1 (stereo unspecified) | > 100 µM | > 100 µM | 29.9 µM | > 100 µM | > 100 µM | > 100 µM | 99.1 µM | > 100 µM | 3.09 µM | > 100 µM | 5.38 µM | > 100 µM | 64.1 µM | > 100 µM | 5.59 µM | > 100 µM | 2.75 µM | > 100 µM | 3.48 µM | > 100 µM |
